Patent US20080242663A1, “NOVEL PYRIMIDINE DERIVATIVES 698” (ASTRAZENECA AB, priority 2007, published 2008)

The molecules below were run against T1, recombinant EphB4 (Homo sapiens, UniProt P54760) (assay: In vitro EphB4 enzyme assay (Alphascreen)).
T1 construct: amino acids 563-987; Swiss-Prot Acc; No. P54760; purchased ProQinase GmbH 0178-0000-3
T1 sequence (P54760 563-987): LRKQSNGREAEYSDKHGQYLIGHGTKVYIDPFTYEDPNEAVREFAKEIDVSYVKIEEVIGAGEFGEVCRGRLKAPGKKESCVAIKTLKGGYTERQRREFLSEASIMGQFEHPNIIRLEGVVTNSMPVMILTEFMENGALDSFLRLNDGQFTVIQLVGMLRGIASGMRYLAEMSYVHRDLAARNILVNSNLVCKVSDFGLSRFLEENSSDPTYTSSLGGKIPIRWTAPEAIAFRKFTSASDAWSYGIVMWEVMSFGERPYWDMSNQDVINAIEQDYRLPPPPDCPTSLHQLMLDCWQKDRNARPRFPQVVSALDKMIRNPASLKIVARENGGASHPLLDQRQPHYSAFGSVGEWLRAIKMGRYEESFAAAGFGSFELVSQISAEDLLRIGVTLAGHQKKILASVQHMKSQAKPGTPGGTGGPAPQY
Assay type: biochemical
Procedure: This assay detects inhibitors of EphB4-mediated phosphorylation of a polypeptide substrate using Alphascreen™ luminescence detection technology. Briefly, recombinant EphB4 was incubated with a biotinylated-polypeptide substrate (biotin-poly-GAT) in presence of magnesium-ATP. The reaction was stopped by addition of EDTA, together with streptavidin-coated donor beads which bind the biotin-substrate containing any phosphorylated tyrosine residues. Anti-phosphotyrosine antibodies present on acceptor beads bind to phosphorylated substrate, thus bringing the donor & acceptor beads into close proximity. Subsequent excitation of the donor beads at 680 nm generated singlet oxygen species that interact with a chemiluminescer on the acceptor beads, leading to light emission at 520-620 nm. The signal intensity is directly proportional to the level of substrate phosphorylation and thus inhibition is measured by a decrease in signal.
Assay plates were then incubated at room temperature for 1 hr. […] The plates were sealed under natural lighting conditions, wrapped in aluminium foil and incubated in the dark for a further 20 hrs.
The resulting assay signal was determined on the Perkin Elmer EnVision plate reader. The minimum value was subtracted from all values, and the signal plotted against compound concentration to generate IC50 data.

Q: Cc1ccc(N(C)c2ccnc(Nc3cc(N4CCOCC4)cc(N4CCOCC4)c3)n2)cc1Cl [Example 15.19, N′-(3-chloro-4-methyl-phenyl)-N-(3,5-dimorpholin-4-ylphenyl)-N′-methyl-pyrimidine-2,4-diamine] was tested. Which IC50 did it give?
A: 1.73 µM

Q: Which IC50 does the source give for Cc1ccc(CO)cc1N(C)c1ccnc(Nc2cc(N3CCOCC3)cc(N3CCC(O)CC3)c2)n1 [Example 7.8, 1-[3-[[4-[[5-(hydroxymethyl)-2-methyl-phenyl]-methyl-amino]pyrimidin-2-yl]amino]-5-morpholin-4-yl-phenyl]piperidin-4-ol] here?
A: 0.0759 µM

Q: COc1ccc(N(C)c2ccnc(Nc3cc(N4CCOCC4)cc(N4CCOCC4)c3)n2)c(C)c1 [Example 15.11, N-(3,5-dimorpholin-4-ylphenyl)-N′-(4-methoxy-2-methyl-phenyl)-N′-methyl-pyrimidine-2,4-diamine] was tested. Which IC50 did it give?
A: 1.32 µM

Q: How did the IC50 turn out when COc1ccc(NC(C)=O)c(N(C)c2ccnc(Nc3cc(N4CCOCC4)cc(S(C)(=O)=O)c3)n2)c1 [Example 13.2, N-[4-methoxy-2-[methyl-[2-[(3-methylsulfonyl-5-morpholin-4-yl-phenyl)amino]pyrimidin-4-yl]amino]phenyl]acetamide] was run?
A: 0.426 µM

Q: Which IC50 does the source give for CN(c1ccc(Cl)c(Cl)c1)c1ccnc(Nc2cc(N3CCOCC3)cc(N3CCOCC3)c2)n1 [Example 10.11, N′-(3,4-dichlorophenyl)-N-(3,5-dimorpholin-4-ylphenyl)-N′-methyl-pyrimidine-2,4-diamine] here?
A: 0.66 µM

Q: Cc1cccc(Cl)c1N(C)c1ccnc(Nc2cc(N3CCOCC3)cc(N3CCOCC3)c2)n1 [Example 15.20, N′-(2-chloro-6-methyl-phenyl)-N-(3,5-dimorpholin-4-ylphenyl)-N′-methyl-pyrimidine-2,4-diamine] was tested. Which IC50 did it give?
A: 1.75 µM

Q: For COCCN(C)C(=O)c1cc(Nc2nccc(N(C)c3cccc(Cl)c3)n2)cc(N2CCOCC2)c1 [Example 19.3, 3-[[4-[(3-chlorophenyl)-methyl-amino]pyrimidin-2-yl]amino]-N-(2-methoxyethyl)-N-methyl-5-morpholin-4-yl-benzamide], which IC50 is on record?
A: 0.571 µM

Q: Cc1ccc(CO)cc1N(C)c1ccnc(Nc2cc(CO)cc(N3CCOCC3)c2)n1 [Example 7.13, [3-[[4-[[5-(hydroxymethyl)-2-methyl-phenyl]-methyl-amino]pyrimidin-2-yl]amino]-5-morpholin-4-yl-phenyl]methanol] was tested. Which IC50 did it give?
A: 0.0326 µM

Q: COc1cc(Nc2nccc(N(C)c3ccc(F)c(Cl)c3F)n2)cc(N2CCOCC2)c1 [Example 2.4, N′-(3-chloro-2,4-difluoro-phenyl)-N-(3-methoxy-5-morpholin-4-yl-phenyl)-N′-methyl-pyrimidine-2,4-diamine] was tested. Which IC50 did it give?
A: 0.348 µM

Q: Which IC50 does the source give for CN(c1cccc(C#N)c1)c1ccnc(Nc2cc(N3CCOCC3)cc(N3CCOCC3)c2)n1 [Example 10.10, 3-[[2-[(3,5-dimorpholin-4-ylphenyl)amino]pyrimidin-4-yl]-methyl-amino]benzonitrile] here?
A: 0.527 µM

Q: Which IC50 does the source give for COc1ccc(F)c(N(C)c2ccnc(Nc3cc(N4CCOCC4)cc(N4CCOCC4)c3)n2)c1 [Example 25.6, N2-(3,5-dimorpholinophenyl)-N4-(2-fluoro-5-methoxyphenyl)-N4-methylpyrimidine-2,4-diamine] here?
A: 0.00788 µM

Q: How did the IC50 turn out when CN(c1cccc(Cl)c1)c1ccnc(Nc2cc(C(=O)N3CCOCC3)cc(N3CCOCC3)c2)n1 [Example 19.10, [3-[[4-[(3-chlorophenyl)-methyl-amino]pyrimidin-2-yl]amino]-5-morpholin-4-yl-phenyl]-morpholin-4-yl-methanone] was run?
A: 0.656 µM

Q: With Cc1ccc(CO)cc1N(C)c1ccnc(Nc2cc(N3CCOCC3)cc(N3CC[C@@H](O)C3)c2)n1 [Example 7.10, (3R)-1-[3-[[4-[[5-(hydroxymethyl)-2-methyl-phenyl]-methyl-amino]pyrimidin-2-yl]amino]-5-morpholin-4-yl-phenyl]pyrrolidin-3-ol] as the molecule, how does the IC50 read?
A: 0.0135 µM

Q: CN(c1ccnc(Nc2cccc(N3CCOCC3)c2)n1)c1ccc(F)c(Cl)c1F [Example 2.3, N′-(3-chloro-2,4-difluoro-phenyl)-N′-methyl-N-(3-morpholin-4-ylphenyl)pyrimidine-2,4-diamine] was tested. Which IC50 did it give?
A: 0.304 µM

Q: CN(c1ccnc(Nc2cc(N3CCC(O)CC3)cc(S(C)(=O)=O)c2)n1)c1ccc(F)c(Cl)c1F [Example 2.11, 1-[3-[[4-[(3-chloro-2,4-difluoro-phenyl)-methyl-amino]pyrimidin-2-yl]amino]-5-methylsulfonyl-phenyl] piperidin-4-ol] was tested. Which IC50 did it give?
A: 0.106 µM

Q: With CN(c1cccc(Cl)c1)c1ccnc(Nc2cc(C(=O)NC(C)(C)CO)cc(N3CCOCC3)c2)n1 [Example 19.19, 3-[[4-[(3-chlorophenyl)-methyl-amino]pyrimidin-2-yl]amino]-N-(1-hydroxy-2-methyl-propan-2-yl)-5-morpholin-4-yl-benzamide] as the molecule, how does the IC50 read?
A: 1.05 µM

Q: Which IC50 does the source give for Cc1ccc(Cl)c(N(C)c2ccnc(Nc3cc(N4CCOCC4)cc(N4CCOCC4)c3)n2)c1 [Example 15.18, N′-(2-chloro-5-methyl-phenyl)-N-(3,5-dimorpholin-4-ylphenyl)-N′-methyl-pyrimidine-2,4-diamine] here?
A: 1.39 µM

Q: For COc1ccc(C)cc1N(C)c1ccnc(Nc2cc(N3CCOCC3)cc(N3CCOCC3)c2)n1 [Example 15.13, N-(3,5-dimorpholin-4-ylphenyl)-N′-(2-methoxy-5-methyl-phenyl)-N′-methyl-pyrimidine-2,4-diamine], which IC50 is on record?
A: 0.722 µM

Q: For CN(c1cccc(Cl)c1)c1ccnc(Nc2cc(C(=O)NC3CCOCC3)cc(N3CCOCC3)c2)n1 [Example 19.24, 3-[[4-[(3-chlorophenyl)-methylamino]pyrimi-din-2-yl]amino]-5-morpholin-4-yl-N-(oxan-4-yl)benzamide], which IC50 is on record?
A: 1 µM

Q: For COc1ccc(C)c(N(C)c2ccnc(Nc3cc(N4CCOCC4)cc(N4CCN(C)CC4)c3)n2)c1 [Example 12.4, N′-(5-methoxy-2-methyl-phenyl)-N′-methyl-N-[3-(4-methylpiperazin-1-yl)-5-morpholin-4-yl-phenyl]pyrimidine-2,4-diamine], which IC50 is on record?
A: 0.171 µM

Q: For C[C@H](O)CN(C)C(=O)c1cc(Nc2nccc(N(C)c3cccc(Cl)c3)n2)cc(N2CCOCC2)c1 [Example 19.5, 3-[[4-[(3-chlorophenyl)-methyl-amino]pyrimidin-2-yl]amino]-N-[(2S)-2-hydroxypropyl]-N-methyl-5-morpholin-4-yl-benzamide], which IC50 is on record?
A: 0.181 µM

Q: For CN(c1ccnc(Nc2cc(CO)cc(N3CCOCC3)c2)n1)c1ccc(F)c(Cl)c1F [Example 2.7, [3-[[4-[(3-chloro-2,4-difluoro-phenyl)-methyl-amino]pyrimidin-2-yl]amino]-5-morpholin-4-yl-phenyl] methanol], which IC50 is on record?
A: 0.117 µM

Q: With Cc1ccc(CO)cc1N(C)c1ccnc(Nc2cc(C#N)cc(N3CCOCC3)c2)n1 [Example 7.15, 3-[[4-[[5-(hydroxymethyl)-2-methyl-phenyl]-methyl-amino]pyrimidin-2-yl]amino]-5-morpholin-4-yl-benzonitrile] as the molecule, how does the IC50 read?
A: 0.195 µM

Q: With COc1ccccc1N(C)c1ccnc(Nc2cc(N3CCOCC3)cc(N3CCOCC3)c2)n1 [Example 10.12, N-(3,5-dimorpholin-4-ylphenyl)-N′-(2-methoxyphenyl)-N′-methyl-pyrimidine-2,4-diamine] as the molecule, how does the IC50 read?
A: 0.107 µM

Q: For CN(c1cc(Cl)cc(CO)c1)c1ccnc(Nc2cc(N3CCOCC3)cc(N3CCOCC3)c2)n1 [Example 10.20, [3-chloro-5-[[2-[(3,5-dimorpholin-4-ylphenyl)amino]pyrimidin-4-yl]-methyl-amino]phenyl]methanol], which IC50 is on record?
A: 0.338 µM

Q: How did the IC50 turn out when CC(=O)N1CCN(c2cc(Nc3nccc(N(C)c4ccc(F)c(Cl)c4F)n3)cc(S(C)(=O)=O)c2)CC1 [Example 2.12, 1-[4-[3-[[4-[(3-chloro-2,4-difluoro-phenyl)-methyl-amino]pyrimidin-2-yl]amino]-5-methylsulfonyl-phenyl]piperazin-1-yl] ethanone] was run?
A: 0.189 µM

Q: CN(c1cccc(Cl)c1)c1ccnc(Nc2cc(C(=O)NC(C)(C)C)cc(N3CCOCC3)c2)n1 [Example 19.20, 3-[[4-[(3-chlorophenyl)-methyl-amino]pyrimidin-2-yl]amino]-5-morpholin-4-yl-N-tert-butyl-benzamide] was tested. Which IC50 did it give?
A: 3.09 µM

Q: COc1ccc(CO)c(N(C)c2ccnc(Nc3cc(N4CCOCC4)cc(N4CCOCC4)c3)n2)c1 [Example 25.7, (2-((2-(3,5-dimorpholinophenylamino)pyrimidin-4-yl)(methyl)amino)-4-methoxyphenyl)methanol] was tested. Which IC50 did it give?
A: 0.0103 µM

Q: C[C@H](CO)NC(=O)c1cc(Nc2nccc(N(C)c3cccc(Cl)c3)n2)cc(N2CCOCC2)c1 [Example 19.23, 3-[[4-[(3-chlorophenyl)-methyl-amino]pyrimidin-2-yl]amino]-N-[(2R)-1-hydroxypropan-2-yl]-5-morpholin-4-yl-benzamide] was tested. Which IC50 did it give?
A: 1.31 µM
